Holding throughout (assay type): cell-based, human
Experiment [1] concerns EGFR. In words: EGFR phosphorylation in PANC-1 cells, Western blot kinetic study. The settings on record: 10 nM agonist(s), pEGFR over total EGFR. How it is done: To prepare protein extracts, cells were pelleted by centrifugation and washed twice in PBS. The pellet was resuspended in lysis buffer (50 mM Tris, pH 8.0, 150 mM sodium chloride, 1% NP-40, supplemented Protease and Phosphatase Inhibitor Mini Tablets, Pierce) and incubated on a rotator for 30 min at 4° C. Subsequently, the cells were pelleted by centrifugation at 10,000 rpm for 20 min at 4° C. The protein lysate (supernatant) was used immediately or stored at −80° C. Membrane proteins were isolated using the Mem-Per Plus Membrane protein isolation kit (Thermo Scientific) per the manufacturer′ instructions. Briefly, adherent cells were scraped and centrifuged for 5 min at 300×g. The cell pellet was washed 2 times using Cell Wash solution and centrifuged for 5 min at 300×g. The cell pellet was permeabilized using Permeabilization Buffer and incubated at 4° C. for 10 mins on a rotator. […] Proteins were detected with Pierce ECL detection reagents (Pierce). […]
Cells were treated with 10 nM Dermorphin [Y(D-ALA)FGYPKC; Genscript], 10 nM (1R,1′S,3′R/1R,1′R,3′S)-L-054,264 (Tocris) individually and in combination for the indicated times. […] Blots were imaged on film and quantified using the Image Lab software (Biorad). ERK1/2 and EGFR phosphorylation at each time point was quantified and normalized by calculating the ratio of pERK1/2 over total ERK1/2 and pEGFR over total EGFR in each lane. […]
(In general: In western blotting, separated proteins are transferred to a membrane and probed.)

Experiment [2] relates to pERK1/2. In words: pERK1/2 localization in PANC-1 cells, confocal imaging. The settings on record: 3 or 30 min, 10 nM dermorphin, 10 nM L-054,264, 100 ng/ml CXCL12. How it is done: For pERK1/2 activation studies, after 24 hours, normal pancreatic and/or PANC-1 cells were treated with 1) 10 nM dermorphin; 2) 10 nM L-054,264; 3) 10 nM dermorphin plus 10 nM L-054,264; 4) 100 ng/ml CXCL12; and 5) 10 nM dermorphin plus 100 ng/ml CXCL12 for either 3 min or 30 min as indicated. PANC-1 NS, PANC-1/β arreatin2, PANC-1/SSTR2si and PANC-1/MORsi cells were treated with 10 nM dermorphin with 10 nM L-054,264 for 3 min. Following treatment, cells were washed and fixed with 4% (w/v) paraformaldehyde and 0.2% (w/v) glutaraldehyde for 30 min and inactivated with 25 mM glycine for 10 min. Cells were then washed in PBS and subsequently permeabilized on ice using 0.5% tween-20 in PBS for 20 min similarly as before (Smith et al., 2004). Cells were washed with PBS and blocked with 5% BSA in PBS for 10 min. Cells were incubated for 1 h at 37° C. with 2 μg/mL of primary antibody (anti-pERK1/2). Subsequently, cells were washed 3 times with 0.5% tween-20 in PBS for 5 min each and incubated with 2 μg/mL of Alexa Fluor 647 labeled secondary antibody in PB for 45 min. Following incubation with secondary antibody, cells were washed 3 times with 0.5% tween-20 in PBS. Cells were covered with mounting media DAPI (Vector Labs), mounted on slides, and imaged on a Zeiss LSM700 confocal microscope.

Experiment [3] has as its system N-cadherin, MMP-9, vimentin and E-cadherin. In words: EMT marker mRNA levels in PANC-1 cells, RT-PCR. The settings on record: 10 nM dermorphin, 100 ng/mL CXCL12. How it is done: RNA was isolated using the RNAeasy Plus Kit (Qiagen) according to the manufacturer's protocol. For the EMT markers assay, cells were first treated with appropriate agonists where indicated for 24 hours followed by cell lysis and RNA extraction. cDNA was synthesized from 2 μg RNA using Bioline cDNA synthesis kit according to the manufacturer's protocol. The synthesized cDNAs were used as templates for PCRs with primers as described below. RT-PCR was performed using 5×RT Mastermix (Applied Biosystems). The reactions were analyzed on the CFX96 Real time instrument (Biorad). Themocycler conditions were 95° C. for 10 min for 1 cycle, 95° C. for 15 sec and 60° C. for 1 min for 50 cycles. GAPDH was used as an internal control. For GPCR assays, COS-7 cells were used as negative and MCF-7 cells as positive controls. For EMT marker assays, fold change was calculated as a ratio of treated to untreated control.

As to (1R,1′S,3′R/1R,1′R,3′S)-L-054,264, the EGFR phosphorylation entry in experiment [1] is recorded as “induced modest EGFR phosphorylation”.
For the substance CXCL12: selective CXCR4 agonist, the pERK1/2 localization entry in experiment [2] is “high levels of nuclear pERK1/2”. For the same substance, in experiment [3], the “mRNA levels of 4 markers (N-cadherin, E-cadherin, MMP-9, vimentin)” value is given as “did not have a significant effect”.
